In PubChem BioAssay (NCI):
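Protocol summary: plate cells (96-well), add compound at 5 concentrations, incubate 48 h, interpolate endpoints linearly. At the GI50, growth is halved. The concentration for full growth arrest is given as TGI.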 *1 amine or outer side, *2 acyl side, *3 side chain or, on linkers, in order; H or OH if unused. Where a SMILES comes first, the peptide text is derived from it. Bridges are numbered along the chain shown (N, C = ends). Roman numbers before positions name the chains, in order. [ ]: non-standard residue; d: D form. Actinocin(9to1) = Cc1c2oc3c(C)ccc(C(=O)[*:1])c3nc-2c(C(=O)[*:2])c(N)c1=O; NMeV = CN[CH](C(=O)O)C(C)C; Sar = CNCC(=O)O

Columns and labels:
Assay in all cases: NCI tumour cell line growth inhibition, 48 h
NCI-H23 lung = tested on: NCI-H23 lung
BT-549 breast = tested on: BT-549 breast
SR leukemia = tested on: SR leukemia
MDA-MB-435 = tested on: MDA-MB-435
SK-OV-3 ovarian = tested on: SK-OV-3 ovarian
IGROV1 ovarian = tested on: IGROV1 ovarian
SF-539 CNS = tested on: SF-539 CNS
786-0 renal = tested on: 786-0 renal
UO-31 renal = tested on: UO-31 renal
HCT-116 colon = tested on: HCT-116 colon

SMILES	GI50 (NCI-H23 lung) [µM]	TGI (NCI-H23 lung) [µM]	GI50 (BT-549 breast) [µM]	TGI (BT-549 breast) [µM]	GI50 (SR leukemia) [µM]	TGI (SR leukemia) [µM]	GI50 (MDA-MB-435) [µM]	TGI (MDA-MB-435) [µM]	GI50 (SK-OV-3 ovarian) [µM]	TGI (SK-OV-3 ovarian) [µM]	GI50 (IGROV1 ovarian) [µM]	TGI (IGROV1 ovarian) [µM]	GI50 (SF-539 CNS) [µM]	TGI (SF-539 CNS) [µM]	GI50 (786-0 renal) [µM]	TGI (786-0 renal) [µM]	GI50 (UO-31 renal) [µM]	TGI (UO-31 renal) [µM]	GI50 (HCT-116 colon) [µM]	TGI (HCT-116 colon) [µM]
C=C1C(=O)O[C@H]2[C@H]1CC/C(Cn1cc(Cc3c[nH]c4ccccc34)nn1)=C\CC[C@@]1(C)O[C@@H]21	2.02	4.56	1.41	2.76	0.389	8.32	1.73	3.46	14.2	27.4	1.92	3.84	1.76	3.35	1.77	3.48	1.49	2.86	1.06	2.38
O=c1cc(-c2ccccc2)oc2ccc(OC/C(=N/O)c3ccc(F)cc3)cc12	5.43	38.4	1.01	2.67	2.09	> 50	0.913	1.98	4.9	30.7	21.7	> 50	1.92	4.06	8.97	> 50	10.8	> 50	2.97	9.05
CCN1C(=O)N(CC)C2C1NN=c1s/c(=C\c3cccs3)c(=O)n12 (stereo not given)	0.375	> 100	0.443	> 100	0.0576	> 100	0.0268	0.0828	0.649	> 100	0.217	> 100	0.0949	0.812	1.03	> 100	0.594	> 100	0.0903	> 100
Cc1c2oc3c(C)ccc(C(=O)OC(C)C4NC(=O)C(C(C)C)N(C)C(=O)CN(C)C(=O)C5CCCN5C(=O)C(C(C)C)NC4=O)c3nc-2c(C(=O)OC(C)C2NC(=O)C(C(C)C)N(C)C(=O)CN(C)C(=O)C3CCCN3C(=O)C(C(C)C)NC2=O)c(N)c1=O (stereo not given) (I: cyclo([Sar][NMeV]TVP) / II: cyclo([Sar][NMeV]TVP); linker I:3-II:3 via Actinocin(9to1); configuration not given here)	< 0.01	0.0802	< 0.01	0.0363	< 0.01	> 100	< 0.01	0.0247	0.0192	> 100	< 0.01	5.9	< 0.01	0.0656	< 0.01	> 100	0.0302	0.206	< 0.01	> 100
Clc1ccccc1[C@@H]1C[C@@H]2Cc3cc(Br)c4ccccc4c3N1O2	8.33	> 100	6.8	> 100	3.33	> 100	2.08	20.4	3.79	> 100	10.4	> 100	3.04	> 100	5.2	> 100	6.05	> 100	4.1	> 100
COc1cc(OC)c(/C=C/C(=O)c2ccc(Nc3ncnc4ccccc34)cc2)c(OC)c1	0.843	11.5	1.04	3.62	0.142	1.1	0.13	0.522	1.02	2.74	1.93	20.3	0.837	2.31	1.47	3.55	1.44	3.99	0.45	2.04
O=C1NC(=O)[C@@]2(CC[C@@H](O)C2)c2ccncc21	–	> 100	–	> 100	–	> 100	–	> 100	–	> 100	–	> 100	–	> 100	–	> 100	–	> 100	–	> 100
Cc1ccc2[nH]c3c(c2c1)N=c1ccccc1=NO3	75.9	> 100	14.2	51.6	33.4	> 100	> 100	> 100	29.9	> 100	32.6	> 100	10.6	27.6	35	> 100	42.2	> 100	83.8	> 100
COc1ccc(-c2nsc3c2NC(=O)CC3c2ccc3c(c2)OCCO3)cc1 (stereo not given)	1.38	> 100	0.674	> 100	0.301	> 100	0.173	0.438	0.476	8.46	1.6	> 100	0.8	6.71	0.829	> 100	2.19	> 100	0.526	> 100
O=C(O)C(Br)C(Br)C(=O)O (stereo not given)	–	> 100	–	> 100	–	> 100	–	> 100	–	> 100	–	> 100	–	> 100	–	> 100	–	> 100	–	> 100
COc1cccc(-n2ncc3c(N/N=C/c4ccc(C)cc4)ncnc32)c1	> 25	> 25	> 25	> 25	> 14.4	> 25	> 22.4	> 25	> 25	> 25	> 25	> 25	> 25	> 25	> 25	> 25	> 25	> 25	> 25	> 25
COC12C=C/C(=C(/C(=O)OCCSc3ccnn3C)C(=O)CCCCCCCCC3(OC)C=C/C(=C(/C(=O)OCCSc4ccnn4C)C(=O)CCCCCCCC1)O3)O2	0.854	2.37	0.954	2.83	0.886	> 32.5	0.685	1.57	1.66	24.9	1.46	> 32.5	1.16	5.24	1.07	4.12	0.942	11.1	0.66	1.37
c1ccc2cc(Cn3cc[n+](Cc4ccc5ccccc5c4)c3)ccc2c1	0.901	10.1	1.18	3.15	1.03	3.42	0.543	2.29	2.15	11.1	0.659	3.75	1.98	9.27	4.4	19	12.1	28.8	1.97	12.3
Cc1cn(CCC(N)C(=O)O)c(=O)[nH]c1=O (stereo not given)	–	> 100	–	> 100	–	> 100	–	> 100	–	> 100	–	> 100	–	> 100	–	> 100	–	> 100	–	> 100
COC1(OC)C2(Cl)C(Cl)=C(Cl)C1(Cl)C1c3ccc(C(C)=O)c4cccc(c34)C12 (stereo not given)	–	> 83	–	> 100	–	50.2	–	43.5	–	> 100	–	> 100	–	> 100	–	> 100	–	> 100	–	> 100
CC(CN1CC(=O)NC(=O)C1)N1CC(=O)NC(=O)C1 (stereo not given)	–	> 750	–	> 750	–	> 750	–	> 750	–	> 672	–	> 725	–	> 750	–	> 750	–	> 750	–	> 750
COc1ccc(C(C#N)=C2C=CC(=NO)C=C2)cc1	12.8	26.3	14.4	29	3.53	> 100	2.23	5.8	29.6	67.5	2.8	8	3.79	13.8	4.95	15.3	4.23	14.6	2.27	5.55
CCCCCCCCCCCC[N+](C)(C)Cc1ccccc1	2.5	10.2	1.74	3.29	1.83	5.16	1.58	3.72	3.05	10.7	1.43	3.66	1.66	3.17	2.37	6.15	10	25.9	1.33	2.8
COC(NC(N)=O)C(=O)O (stereo not given)	–	> 100	–	> 100	–	> 100	–	> 100	–	> 100	–	> 100	–	> 100	–	> 100	–	> 100	–	> 100
